Experimental findings from patent publication EP1285918A1, “C7 Ester substituted taxanes as antitumor agents” (Florida State University Research Foundation, Inc., priority 2001, dated 2003) are described below.

The test system of this assay is HCT116. As to the kind of experiment: In Vitro cytotoxicity measured by the cell colony formation assay. Format: cell-based. The note with it: Homo sapiens, HCT-116; 72 h drug incubation, colonies counted after 7 days; concentration producing 50% inhibition of colony formation; read-out: IN VITRO ID 50 (nm) HCT116. The protocol:
In Vitro cytotoxicity measured by the cell colony formation assay
Four hundred cells (HCT116) were plated in 60 mm Petri dishes containing 2.7 mL of medium (modified McCoy's 5a medium containing 10% fetal bovine serum and 100 units/mL penicillin and […] streptomycin). The cells were incubated in a CO2 incubator at 37 °C for 5 h for attachment to the bottom of Petri dishes. The compounds identified in Example 2 were made up fresh in medium at ten times the final concentration, and then 0.3 mL of this stock solution was added to the 2.7 mL of medium in the dish. The cells were then incubated with drugs for 72 h at 37 ° C. At the end of incubation the drug-containing media were decanted, the dishes were rinsed with 4 mL of Hank's Balance Salt Solution (HBSS), 5 mL of fresh medium was added, and the dishes were returned to the incubator for colony formation. The cell colonies were counted using a colony counter after incubation for 7 days. Cell survival was calculated and the values of ID50 (the drug concentration producing 50% inhibition of colony formation) were determined for each tested compound.

Some results are limits rather than exact numbers.

As for `CCC(=O)O[C@H]1C[C@H]2OC[C@@]2(OC(C)=O)[C@H]2[C@H](OC(=O)c3ccccc3)[C@]3(O)C[C@H](OC(=O)[C@H](O)[C@@H](NC(=O)OC(C)(C)CC)c4ccco4)C(C)=C([C@@H](O)C(=O)[C@]12C)C3(C)C` [Compound 6212], the IC50 is below 1 nM.

With `CCC(=O)O[C@H]1C[C@H]2OC[C@@]2(OC(C)=O)[C@H]2[C@H](OC(=O)c3ccccc3)[C@]3(O)C[C@H](OC(=O)[C@H](O)[C@@H](NC(=O)OC(C)C)c4cccs4)C(C)=C([C@@H](O)C(=O)[C@]12C)C3(C)C` [Compound 3082], the IC50 is below 1 nM.

`CCCCC(=O)O[C@H]1C[C@H]2OC[C@@]2(OC(C)=O)[C@H]2[C@H](OC(=O)c3ccccc3)[C@]3(O)C[C@H](OC(=O)[C@H](O)[C@@H](NC(=O)OC(C)(C)CC)c4ccco4)C(C)=C([C@@H](O)C(=O)[C@]12C)C3(C)C` [Compound 6343]: the IC50 is below 10 nM.

Regarding `CCC(=O)OC1CC2OCC2(OC(C)=O)C2C(OC(=O)c3ccccc3)C3(O)CC(OC(=O)C(O)C(NC(=O)c4cccs4)c4ccco4)C(C)=C(C(O)C(=O)C12C)C3(C)C` (stereo not drawn) [Compound 3632], the IC50 was below 1 nM.

As for `CCC(=O)O[C@H]1C[C@H]2OC[C@@]2(OC(C)=O)[C@H]2[C@H](OC(=O)c3ccccc3)[C@]3(O)C[C@H](OC(=O)[C@H](O)[C@@H](NC(=O)OC(C)(C)C)c4nccs4)C(C)=C([C@@H](O)C(=O)[C@]12C)C3(C)C` [Compound 6363], the IC50 is below 10 nM.

On to `CCCC(=O)OC1CC2OCC2(OC(C)=O)C2C(OC(=O)c3ccccc3)C3(O)CC(OC(=O)C(O)C(NC(=O)OC(C)(C)C)c4ccco4)C(C)=C(C(O)C(=O)C12C)C3(C)C` (stereo not drawn) [Compound 4499], for which the IC50 is below 1 nM.

In the case of `CCCC(=O)OC1CC2OCC2(OC(C)=O)C2C(OC(=O)c3ccccc3)C3(O)CC(OC(=O)C(O)C(NC(=O)c4ccco4)c4cccs4)C(C)=C(C(O)C(=O)C12C)C3(C)C` (stereo not drawn) [Compound 4219], the IC50 is 29 nM.

Take `CCC(=O)O[C@H]1C[C@H]2OC[C@@]2(OC(C)=O)[C@H]2[C@H](OC(=O)c3ccccc3)[C@]3(O)C[C@H](OC(=O)[C@H](O)[C@@H](NC(=O)OC(C)(C)C)C4CC4)C(C)=C([C@@H](O)C(=O)[C@]12C)C3(C)C` [Compound 5070]: the IC50 is below 10 nM.

As to `CCCC(=O)N[C@@H](c1cccs1)[C@@H](O)C(=O)O[C@H]1C[C@@]2(O)[C@@H](OC(=O)c3ccccc3)[C@@H]3[C@]4(OC(C)=O)CO[C@@H]4C[C@H](OC(=O)CC)[C@@]3(C)C(=O)[C@H](O)C(=C1C)C2(C)C` [Compound 3327], the IC50 is below 10 nM.

With `CCC(=O)O[C@H]1C[C@H]2OC[C@@]2(OC(C)=O)[C@H]2[C@H](OC(=O)c3ccccc3)[C@]3(O)C[C@H](OC(=O)[C@H](O)[C@@H](NC(=O)OC(C)C)c4ccco4)C(C)=C([C@@H](O)C(=O)[C@]12C)C3(C)C` [Compound 3444], the IC50 is below 1 nM.

As to `CCC(=O)O[C@H]1C[C@H]2OC[C@@]2(OC(C)=O)[C@H]2[C@H](OC(=O)c3ccccc3)[C@]3(O)C[C@H](OC(=O)[C@H](O)[C@@H](NC(=O)c4cccs4)c4cccs4)C(C)=C([C@@H](O)C(=O)[C@]12C)C3(C)C` [Compound 3479], the IC50 is below 1 nM.

For `CCCC(=O)OC1CC2OCC2(OC(C)=O)C2C(OC(=O)c3ccccc3)C3(O)CC(OC(=O)C(O)C(NC(=O)c4cccs4)c4cccs4)C(C)=C(C(O)C(=O)C12C)C3(C)C` (stereo not drawn) [Compound 4388], the IC50 is below 1 nM.

For `CCC(=O)OC1CC2OCC2(OC(C)=O)C2C(OC(=O)c3ccccc3)C3(O)CC(OC(=O)C(O)C(NC(=O)C=C(C)C)c4cccs4)C(C)=C(C(O)C(=O)C12C)C3(C)C` (stereo not drawn) [Compound 4312], the IC50 was below 1 nM.

On to `CCC(=O)O[C@H]1C[C@H]2OC[C@@]2(OC(C)=O)[C@H]2[C@H](OC(=O)c3ccccc3)[C@]3(O)C[C@H](OC(=O)[C@H](O)[C@@H](NC(=O)c4ccco4)c4ccco4)C(C)=C([C@@H](O)C(=O)[C@]12C)C3(C)C` [Compound 3629], for which the IC50 is below 1 nM.

Consider `CCCC(=O)OC1CC2OCC2(OC(C)=O)C2C(OC(=O)c3ccccc3)C3(O)CC(OC(=O)C(O)C(NC(=O)OC(C)(C)C)c4ccoc4)C(C)=C(C(O)C(=O)C12C)C3(C)C` (stereo not drawn) [Compound 4394], for which the IC50 is below 1 nM.
